Measurements from patent US7560529B2, “Method for producing catalytic antibodies (variants), antigens for immunization and nucleotide sequence” (FDS Pharma, priority 2001, dated 2009).

Tested on: CD4+ T-lymphocytes from SJL mice
Assay: Flow cytometry of surface marker expression in T-lymphocytes of immunized SJL mice
Type: in vivo
Description: To characterize the features of immune response development upon immunization with a fusion protein comprising the neuroantigen MBP, a comparative analysis of specific surface markers expression in T-lymphocytes from SJL mice that were not immunized (control), from mice immunized with the synthetic peptide MBP89-104, recombinant fusion protein gp120I-IIImbp (the product of Construct No. 15 (see FIG. 3) at two different doses and recombinant protein gp120I-III (the product of Construct No. 13 (see FIG. 3) was carried out (FIG. 11). All the immunizations were performed in parallel under identical conditions as described above. Twenty one days after the beginning of an experiment, CD4+ T-lymphocytes isolated from two mice of each group were analyzed by flow cytometry. A specific feature of SJL mice was initially low CD8+ T-cell counts.

VVHFFKNIVTPRTPPPS [peptide MBP, encephalitogenic 89-104 peptide of the myelin basic protein, reference compound]
T-cell immune response by day 21 after immunization (surface markers CD11a, CD44, CD45RB, CD62-L): fully developed T-cell immune response
